Data published in patent US12721870B2 (priority 2021, dated 2026).
Several values for one entry are separate records, joined by “and”; a condition that tells them apart may be missing. Identical values can stand only once.

Assays:
[1] = tested on: Th1, Th2, Th17, and Treg cells; experiment: T cell subset marker mRNA in splenocytes of CPP-induced animal model (qPCR); type: in vivo; conditions: mice, 150 mg/kg CPP only
Experimental: In addition, RNA was isolated from the splenocytes at 2×10^6 cells/sample using a TRIZOL® reagent (Thermo, US), and cDNA was synthesized using ACCUPOWER® RT PreMix & Master Mix (Bioneer, KO). To confirm changes in differentiation of Th1, Th2, Th17, and Treg cells, T cell subsets, using the synthesized cDNA and ACCUPOWER® GreenStar™ qPCR PreMix (Bioneer, KO), expression levels of TBX21, GATA3, RORγt, IL-17A, Foxp3, and CTLA-4 mRNA in these cells were measured.

splenocytes = experiment: Cell viability of splenocytes from CPP-induced animal model (WST); type: in vivo; conditions: mice, 150 mg/kg CPP only, splenocytes incubated 48 hours
Experimental: To measure the cell viability of splenocytes, a collection of cells involved in various cellular immunity, splenocytes from each mouse were seeded in a 96-well plate at 1×10^4 cells/well and then incubated in a 37° C. CO2 incubator for 48 hours. Next, the splenocytes were treated with WST to measure cell viability.

[2] = tested on: cyclophosphamide (CPP)-induced animal model; experiment: Antibodies in blood of CPP-induced animal model (ELISA); type: in vivo; conditions: mice, 150 mg/kg CPP only, serum ELISA
Experimental: (§1) The blood of a CPP-induced animal model was reacted at room temperature for two hours and then centrifuged at 4000 rpm for 10 minutes to isolate serum. The secretion amounts of IgG, IgA, and IgM were measured from the isolated serum using an ELISA kit (Thermo, US).

[3] = tested on: natural killer cells (NK cells); experiment: Cytotoxicity of NK cells from CPP-induced animal model (LDH, YAC-1 cells); conditions: mice, 150 mg/kg CPP only, YAC-1 cells: splenocytes 1:50, four hours
Experimental: The test was performed in the following four groups with seven mice per group: a normal control (NC), a group treated with 150 mg/kg of CPP, a group treated with 1×10^9 CFU/mouse (10^9 CFU) ATG-V5 (V5 strain), and a group treated with 1×10^10 CFU/mouse (V5 10^10 CFU) ATG-V5 (V5 strain).
To measure the cytotoxicity of natural killer cells (NK cells), the spleen was isolated from a CPP-induced animal model, and then the tissue was ground to obtain splenocytes. Next, the splenocytes were mixed with YAC-1 cells in a ratio of the YAC-1 cells: the splenocytes of 1:50 and then incubated in a CO2 incubator at 37° C. for four hours. The amount of LDH was measured using an LDH-cell cytotoxicity assay kit.

[4] = tested on: cyclophosphamide (CPP)-induced animal model; experiment: Cytokines in blood of CPP-induced animal model (ELISA); type: in vivo; conditions: mice, 150 mg/kg CPP only, serum ELISA; tendency
Experimental: as §1
In addition, enzyme-linked immunosorbent assay (ELISA) for IL-6, IL-2, IL-10, and IL-4 was performed using the serum.

[5] = tested on: cyclophosphamide (CPP)-induced animal model; experiment: Thymus and spleen weight in CPP-induced animal model; type: in vivo; conditions: mice
Experimental: To confirm the immunity-enhancing efficacy of the V5 strain in a cyclophosphamide (CPP)-induced animal model, tests were performed for each concentration of the V5 strain. Cyclophosphamide (CPP) is an anticancer drug widely used for all types of cancers, sarcomas, leukemia, and malignant lymphoma, and is a non-specific immunosuppressant. […] When CPP suppresses immunity, the weight of the thymus, an immune tissue, and the number of thymocytes are reduced, and the spleen weight is increased as a result of a defense mechanism against immunosuppression.
To confirm the effect of the V5 strain on the weight of the thymus and spleen of a CPP-induced animal model, the weight of the thymus and spleen of the animal model was measured.

For `O=P1(N(CCCl)CCCl)NCCCO1` (stereo not drawn) [CPP, cyclophosphamide], the “Overall number of T cell subsets (mRNA in splenocytes)” value [1] was “suppressing”, the “Cell viability of splenocytes” value (splenocytes) was 99.98% and the “Secretion amount of IgA in the blood” value [2] was “reduced”. For the same compound, the “Secretion amount of IgG in the blood” value [2] was “reduced”, the “Secretion amount of IgM in the blood” value [2] was “failed to cause changes” and the “Cytotoxicity of NK cells” value [3] was 144%. The “Cytokines in the blood (IL-6, IL-2, IL-10, IL-4)” value [4] was “reduced”, the Thymus weight ([5]; group treated with 150 mg/kg of CPP only (normal control 0.061 g), 150 mg/kg) was 0.03 g and 0.031 g and the Spleen weight ([5]; group treated with 150 mg/kg of CPP only (normal control 0.105 g)) was 0.170 g.
